One assay has as its target T1, ITK (Homo sapiens, UniProt Q08881).
T1 construct: purchased Promega Corporation
T1 sequence (Q08881 1-620): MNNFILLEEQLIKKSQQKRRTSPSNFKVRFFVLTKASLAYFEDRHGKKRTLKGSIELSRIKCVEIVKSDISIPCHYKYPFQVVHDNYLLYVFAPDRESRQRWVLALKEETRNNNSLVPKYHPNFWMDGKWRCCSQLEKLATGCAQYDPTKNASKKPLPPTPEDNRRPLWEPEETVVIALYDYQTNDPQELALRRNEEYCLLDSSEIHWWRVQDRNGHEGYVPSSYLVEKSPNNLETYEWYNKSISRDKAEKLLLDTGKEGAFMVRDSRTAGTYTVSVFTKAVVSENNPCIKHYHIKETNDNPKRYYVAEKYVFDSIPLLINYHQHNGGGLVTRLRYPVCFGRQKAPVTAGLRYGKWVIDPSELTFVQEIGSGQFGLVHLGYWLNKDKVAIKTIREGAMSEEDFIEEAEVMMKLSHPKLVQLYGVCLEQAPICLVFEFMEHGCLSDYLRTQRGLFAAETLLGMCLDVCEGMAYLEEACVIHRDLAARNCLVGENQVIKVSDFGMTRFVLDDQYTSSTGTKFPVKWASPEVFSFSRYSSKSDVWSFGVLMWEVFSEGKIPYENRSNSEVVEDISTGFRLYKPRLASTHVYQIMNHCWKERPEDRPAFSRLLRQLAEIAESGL
Kind of assay: Inhibitory activity against ITK, ADP-Glo + ITK Kinase enzyme system kit (Promega). To be noted: ITK enzyme 0.4 ng/μl; 15 min preincubation at room temperature; 1 hour at 30° C.; luminescence; duplicate. Format: biochemical. The method, then: (§1) Inhibitory activities against BTK and ITK were measured for the compounds prepared in the above Examples as follows.
The inhibitory activity against ITK was evaluated using ‘ADP-Glo™+ITK Kinase enzyme system’ kit (Promega Corporation). […] To the plate on which reactions were completed, 5 μl of substrate and 5 μl of ATP prepared so as to have a final concentration of […] were added and then allowed to react at 30° C. for 1 hour. All wells of the plate were treated with 25 μl of ADP-Glo™ reagent and then allowed to react at 30° C. for 40 minutes. After that, all wells were treated with 50 μl of kinase detection buffer, and then allowed to react at 30° C. for 30 minutes under light shielding conditions. For the plate on which all reactions were completed, luminescence was measured and the results were calculated. Evaluation was carried out in duplicate, and negative control and positive control were calculated depending on whether or not the enzyme was added without treatment of the compound. The IC50 was calculated based on the calculated values.
A general note: In ADP-Glo the light output rises with the ADP produced.

The target in another assay is T2, BTK (Homo sapiens, UniProt Q06187).
T2 construct: purchased Promega Corporation
Description: Inhibitory activity against BTK, ADP-Glo + BTK Kinase enzyme system kit (Promega). Format: biochemical. To be noted: BTK enzyme 1 ng/μl; ATP 10 µM; 15 min preincubation at room temperature; 1 hour at 30° C.; luminescence; duplicate. The method, then:
as §1
The inhibitory activities against BTK were evaluated using ‘ADP-Glo™+BTK Kinase enzyme system’ kit (Promega Corporation). […] 5 μl of substrate and 5 μl of ATP prepared so as to have a final concentration of 10 µM were added to the plate on which reactions were completed, and then allowed to react at 30° C. for 1 hour. All wells of the plate were treated with 25 μl of ADP-Glo™ reagent and allowed to react at 30° C. for 40 minutes. After that, all wells were treated with 50 μl of kinase detection buffer, and then reacted at 30° C. for 30 minutes under light shielding conditions. For the plate on which all reactions were completed, luminescence was measured and the results were calculated. Evaluation was carried out in duplicate, and negative control and positive control were calculated depending on whether or not the enzyme was added without treatment of the compound. The IC50 was calculated based on the calculated values.

In US12227498B2, “Heterocyclic amine derivative and pharmaceutical composition comprising same” (Daewoong Pharmaceutical Co., Ltd., priority 2018, dated 2025) one finds IC50 data, which are given here for 23 compounds.

What is called IC50 is the point on the concentration scale where inhibition reaches its midpoint.

T2 sequence (Q06187 whole entry): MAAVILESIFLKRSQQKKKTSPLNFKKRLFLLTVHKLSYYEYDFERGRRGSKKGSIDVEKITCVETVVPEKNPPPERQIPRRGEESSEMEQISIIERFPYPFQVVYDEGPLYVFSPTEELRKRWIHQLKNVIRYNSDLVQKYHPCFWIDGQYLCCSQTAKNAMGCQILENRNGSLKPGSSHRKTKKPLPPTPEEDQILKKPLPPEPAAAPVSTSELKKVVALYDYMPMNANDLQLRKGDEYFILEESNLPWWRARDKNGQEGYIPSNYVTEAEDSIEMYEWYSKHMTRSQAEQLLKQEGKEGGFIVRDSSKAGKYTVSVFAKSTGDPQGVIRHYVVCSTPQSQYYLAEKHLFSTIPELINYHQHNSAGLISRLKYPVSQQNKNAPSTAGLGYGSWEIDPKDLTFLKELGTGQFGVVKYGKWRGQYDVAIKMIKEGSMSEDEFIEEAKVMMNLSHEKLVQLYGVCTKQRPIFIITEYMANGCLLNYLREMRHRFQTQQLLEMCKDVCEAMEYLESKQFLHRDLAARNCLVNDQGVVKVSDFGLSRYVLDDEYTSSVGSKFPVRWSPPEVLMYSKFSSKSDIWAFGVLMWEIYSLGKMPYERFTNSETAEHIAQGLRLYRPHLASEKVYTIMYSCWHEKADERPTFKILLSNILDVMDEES

With `CC#CC(=O)N1CCC[C@H](Nc2cc(OC3CCN(C)CC3)cc(Nc3ncc(C)s3)n2)C1` [Example 41, (S)-1-(3-((4-((1-methylpiperidin-4-yl)oxy)-6-((5-methylthiazol-2-yl)amino)pyridin-2-yl)amino)piperidin-1-yl) but-2-yn-1-one], the IC50 came to 128 nM on ITK and 9.5 nM on BTK.
For `C=CC(=O)N1CCC(Nc2cc(CN3CCOCC3)cc(Nc3ncc(C)s3)n2)C1` (stereo not shown) [Example 2, 1-(3-((6-((5-methylthiazol-2-yl)amino)-4-(morpholinomethyl)pyridin-2-yl)amino)pyrrolidin-1-yl) prop-2-en-1-one] the same measures were 2.6 nM and 3.1 nM.
`C#CC(=O)N1CCC[C@H](Nc2cc(OC3CCN(C)CC3)cc(Nc3ncc(C)s3)n2)C1` [Example 40, (S)-1-(3-((4-((1-methylpiperidin-4-yl)oxy)-6-((5-methylthiazol-2-yl)amino)pyridin-2-yl)amino)piperidin-1-yl) prop-2-yn-1-one]: the IC50 was 10.8 nM at ITK and 10.3 nM on BTK.
For `Cc1cnc(Nc2cc(CN3CCOCC3)cc(N[C@H]3CCCN(C(=O)CCCl)C3)n2)s1` [Example 45, (S)-3-chloro-1-(3-((6-((5-methylthiazol-2-yl)amino)-4-(morpholinomethyl)pyridin-2-yl)amino)piperidin-1-yl) propan-1-one], in that order: 91.6 nM and 30.8 nM.
As for `CC#CC(=O)N1CCC[C@H](Nc2cc(CN3CCOCC3)cc(Nc3ncc(C)s3)n2)C1` [Example 18, (S)-1-(3-((6-((5-methylthiazol-2-yl)amino)-4-(morpholinomethyl)pyridin-2-yl)amino)piperidin-1-yl) but-2-yn-1-one], the figures for the IC50 on ITK and at BTK were 50.5 nM and 5.2 nM, respectively.
On to `C=CC(=O)N1CCC(Oc2cc(CN3CCOCC3)cc(Nc3ncc(C)s3)n2)C1` (stereo not shown) [Example 10, 1-(3-((6-((5-methylthiazol-2-yl)amino)-4-(morpholinomethyl)pyridin-2-yl)oxy)pyrrolidin-1-yl) prop-2-en-1-one], for which the IC50 was over 40 nM on ITK and 2.4 nM at BTK.
Take `C=CC(=O)N1CCC[C@@H](Oc2cc(CN3CCOCC3)cc(Nc3ncc(C)s3)n2)C1` [Example 16, (R)-1-(3-((6-((5-methylthiazol-2-yl)amino)-4-(morpholinomethyl)pyridin-2-yl)oxy)piperidin-1-yl) prop-2-en-1-one]: the IC50 was over 1000 nM at ITK and 1.1 nM at BTK.
For `C=CC(=O)N1CCC[C@H](Nc2nc(CN3CCOCC3)cc(Nc3ncc(C)s3)n2)C1` [Example 21, (S)-1-(3-((4-((5-methylthiazol-2-yl)amino)-6-(morpholinomethyl)pyrimidin-2-yl)amino)piperidin-1-yl) prop-2-en-1-one], in that order: 1.9 nM and 1.3 nM.
For `C=CC(=O)N1CCC[C@H](Nc2cc(CN3CCN(CCOC)CC3)cc(Nc3ncc(C)s3)n2)C1` [Example 22], the IC50 on ITK was 1 nM; on BTK it was 1.2 nM.
For `C=CC(=O)N1CCCC(Oc2cc(CN3CCOCC3)cc(Nc3ncc(C)s3)n2)C1` (stereo not shown) [Example 12, 1-(3-((6-((5-methylthiazol-2-yl)amino)-4-(morpholinomethyl)pyridin-2-yl)oxy)piperidin-1-yl) prop-2-en-1-one] the same measures were 2 nM and 2 nM.
For `C=CC(=O)N1CC[C@@H](Nc2cc(CN3CCOCC3)cc(Nc3ncc(C)s3)n2)C1` [Example 6, (R)-1-(3-((6-((5-methylthiazol-2-yl)amino)-4-(morpholinomethyl)pyridin-2-yl)amino)pyrrolidin-1-yl) prop-2-en-1-one], in that order: 36 nM and 27.7 nM.
`C=CC(=O)N1CCC[C@H](Nc2cc(CN3CCOCC3)cc(Nc3nccs3)n2)C1` [Example 51, (S)-1-(3-(4-(morpholinomethyl)-6-(thiazol-2-ylamino)pyridin-2-ylamino)piperidin-1-yl) prop-2-en-1-one]: the IC50 at ITK and at BTK was about 1000 nM throughout.
Turning to `C=CC(=O)N1CCC[C@H](Nc2cc(Cc3cccnc3)cc(Nc3ncc(C)s3)n2)C1` [Example 36, (S)-1-(3-((6-((5-methylthiazol-2-yl)amino)-4-(pyridin-3-ylmethyl)pyridin-2-yl)amino)piperidin-1-yl) prop-2-en-1-one], the IC50 at ITK was determined as 1.8 nM; on BTK it was 3.9 nM.
As to `C=CC(=O)N1CCC[C@H](Nc2nc(Nc3ncc(C)s3)cc(CN3CCOCC3)c2F)C1` [Example 52, (S)-1-(3-(3-fluoro-6-(5-methylthiazol-2-ylamino)-4-(morpholinomethyl)pyridin-2-ylamino)piperidin-1-yl) prop-2-en-1-one], the IC50 on ITK and at BTK was about 1000 nM each time.
In the case of `C/C=C/C(=O)N1CCC(Nc2cc(CN3CCOCC3)nc(Nc3ncc(C)s3)n2)C1` (stereo not shown) [Example 9, (E)-1-(3-((2-((5-methylthiazol-2-yl)amino)-6-(morpholinomethyl)pyrimidin-4-yl)amino)pyrrolidin-1-yl) but-2-en-1-one], the IC50 at ITK and on BTK was over 1000 nM throughout.
For `C=CC(=O)N1CCC[C@H](Nc2cc(CN3CCN(C(C)=O)CC3)cc(Nc3ncc(C)s3)n2)C1` [Example 20], the IC50 at ITK and at BTK was 1.1 nM in each case.
`C=CC(=O)N1CCC[C@@H](Nc2nc(CN3CCOCC3)cc(Nc3ncc(C)s3)n2)C1` [Example 25, (R)-1-(3-((4-((5-methylthiazol-2-yl)amino)-6-(morpholinomethyl)pyrimidin-2-yl)amino)piperidin-1-yl) prop-2-en-1-one]: the IC50 on ITK and on BTK was about 1000 nM each time.
For `C=CC(=O)N1CCC[C@H](Nc2cc(CN3CCN(CC)CC3)cc(Nc3ncc(C)s3)n2)C1` [Example 32], the IC50 at ITK amounted to 5.6 nM; at BTK, 3 nM.
For `C=CC(=O)N1CCC[C@H](Nc2cc(Cc3ccccn3)cc(Nc3ncc(C)s3)n2)C1` [Example 37, (S)-1-(3-((6-((5-methylthiazol-2-yl)amino)-4-(pyridin-2-ylmethyl)pyridin-2-yl)amino)piperidin-1-yl) prop-2-en-1-one], in that order: 1.9 nM and 3.2 nM.
Consider `C=CC(=O)N1CCC[C@@H](Nc2cc(CN3CCOCC3)cc(Nc3ncc(C)s3)n2)C1` [Example 4, (R)-1-(3-((6-((5-methylthiazol-2-yl)amino)-4-(morpholinomethyl)pyridin-2-yl)amino)piperidin-1-yl) prop-2-en-1-one], for which the IC50 at ITK was determined as 1.6 nM; on BTK it was 0.4 nM.
For `CC#CC(=O)N1CCC[C@@H](Nc2cc(CN3CCOCC3)cc(Nc3ncc(C)s3)n2)C1` [Example 13, (R)-1-(3-((6-((5-methylthiazol-2-yl)amino)-4-(morpholinomethyl)pyridin-2-yl)amino)piperidin-1-yl) but-2-yn-1-one] the same measures were over 200 nM and over 200 nM.
For `C=CC(=O)N1CCC[C@H](Nc2nc(CN3CCCCC3)cc(Nc3ncc(C)s3)n2)C1` [Example 31, (S)-1-(3-((4-((5-methylthiazol-2-yl)amino)-6-(piperidin-1-ylmethyl)pyrimidin-2-yl)amino)piperidin-1-yl) prop-2-en-1-one] the same measures were 15.6 nM and 8.8 nM.
Turning to `C=CC(=O)N1CCC[C@H](Nc2cc(CN3CCOCC3)cc(Nc3ncc(C(F)(F)F)s3)n2)C1` [Example 49, (S)-1-(3-(4-(morpholinomethyl)-6-(5-(trifluoromethyl)thiazol-2-ylamino)pyridin-2-ylamino)piperidin-1-yl) prop-2-en-1-one], the IC50 on ITK worked out at 3 nM; at BTK, 2 nM.
